From article PMC7508466 (Bioorganic & medicinal chemistry letters, 2020)
Entries after “also recorded” stand apart in the source; their conditions may differ.

Columns and labels:
human sst2 receptor = human sst2 receptor (Homo sapiens, UniProt P30874); experiment: cAMP functional assay in CHO-K1 cells stably expressing human sst2 receptor; assay type: cell-based; settings: for sst2 pEC50±SEM: human sst2, CHO-K1 cells, cAMP, average of two or more independent measurements
hERG channel = hERG channel (Homo sapiens, UniProt Q12809); experiment: hERG inhibition binding assay
Chain of hERG channel (Q12809 whole entry): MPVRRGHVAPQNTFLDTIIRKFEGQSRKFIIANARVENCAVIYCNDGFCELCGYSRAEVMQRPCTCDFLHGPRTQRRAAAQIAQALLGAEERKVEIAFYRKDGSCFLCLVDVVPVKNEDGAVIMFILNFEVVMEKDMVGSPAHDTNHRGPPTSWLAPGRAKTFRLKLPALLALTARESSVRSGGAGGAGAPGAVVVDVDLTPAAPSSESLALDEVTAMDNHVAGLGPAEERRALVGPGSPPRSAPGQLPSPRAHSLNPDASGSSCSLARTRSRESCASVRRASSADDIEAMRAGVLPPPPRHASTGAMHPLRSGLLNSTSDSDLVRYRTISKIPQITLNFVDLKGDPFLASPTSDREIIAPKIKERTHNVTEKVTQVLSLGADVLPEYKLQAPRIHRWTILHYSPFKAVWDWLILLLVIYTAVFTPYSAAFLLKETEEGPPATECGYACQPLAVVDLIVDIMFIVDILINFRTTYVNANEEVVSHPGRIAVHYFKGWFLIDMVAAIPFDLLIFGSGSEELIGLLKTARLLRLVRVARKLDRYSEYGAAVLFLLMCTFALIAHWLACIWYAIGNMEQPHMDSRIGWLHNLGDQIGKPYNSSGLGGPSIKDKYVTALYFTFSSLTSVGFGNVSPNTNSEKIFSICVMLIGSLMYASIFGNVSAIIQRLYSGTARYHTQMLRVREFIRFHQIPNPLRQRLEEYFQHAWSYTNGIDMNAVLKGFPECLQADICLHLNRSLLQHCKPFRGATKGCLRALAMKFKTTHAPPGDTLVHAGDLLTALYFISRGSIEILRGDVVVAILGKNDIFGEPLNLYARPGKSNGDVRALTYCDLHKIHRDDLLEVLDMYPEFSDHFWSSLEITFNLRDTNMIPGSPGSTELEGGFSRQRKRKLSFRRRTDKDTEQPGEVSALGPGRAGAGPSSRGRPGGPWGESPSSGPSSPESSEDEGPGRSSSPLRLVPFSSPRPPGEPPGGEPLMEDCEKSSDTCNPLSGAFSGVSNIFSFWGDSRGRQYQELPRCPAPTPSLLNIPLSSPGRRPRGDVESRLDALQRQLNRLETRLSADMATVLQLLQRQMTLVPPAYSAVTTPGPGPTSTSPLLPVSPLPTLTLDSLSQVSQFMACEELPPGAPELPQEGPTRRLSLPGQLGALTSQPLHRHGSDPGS

CYP450 2D6 = CYP450 2D6 (Homo sapiens, UniProt P10635); experiment: in vitro screening CYP450 inhibition assay, 2D6; assay type: in vitro ADME; settings: top concentration tested 10 μM
Chain of CYP450 2D6 (P10635 whole entry): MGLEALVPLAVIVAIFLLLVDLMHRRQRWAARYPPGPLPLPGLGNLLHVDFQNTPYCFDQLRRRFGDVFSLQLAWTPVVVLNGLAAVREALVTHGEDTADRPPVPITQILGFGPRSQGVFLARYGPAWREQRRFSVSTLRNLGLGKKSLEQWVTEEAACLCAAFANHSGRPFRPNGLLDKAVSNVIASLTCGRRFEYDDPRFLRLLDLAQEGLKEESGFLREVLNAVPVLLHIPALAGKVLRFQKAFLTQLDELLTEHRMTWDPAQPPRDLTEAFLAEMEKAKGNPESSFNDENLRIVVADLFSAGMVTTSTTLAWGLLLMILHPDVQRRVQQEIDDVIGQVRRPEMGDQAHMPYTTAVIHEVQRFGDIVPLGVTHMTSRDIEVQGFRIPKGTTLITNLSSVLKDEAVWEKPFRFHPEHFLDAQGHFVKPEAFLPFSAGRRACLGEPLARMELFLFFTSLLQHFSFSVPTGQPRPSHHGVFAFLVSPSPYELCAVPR

[1] = oral administration to male SD rats; assay type: in vivo, rat
CYP450 3A4 = CYP450 3A4 (Homo sapiens, UniProt P08684); experiment: in vitro screening CYP450 inhibition assay, 3A4; assay type: in vitro ADME; settings: top concentration tested 10 μM
Chain of CYP450 3A4 (P08684 whole entry): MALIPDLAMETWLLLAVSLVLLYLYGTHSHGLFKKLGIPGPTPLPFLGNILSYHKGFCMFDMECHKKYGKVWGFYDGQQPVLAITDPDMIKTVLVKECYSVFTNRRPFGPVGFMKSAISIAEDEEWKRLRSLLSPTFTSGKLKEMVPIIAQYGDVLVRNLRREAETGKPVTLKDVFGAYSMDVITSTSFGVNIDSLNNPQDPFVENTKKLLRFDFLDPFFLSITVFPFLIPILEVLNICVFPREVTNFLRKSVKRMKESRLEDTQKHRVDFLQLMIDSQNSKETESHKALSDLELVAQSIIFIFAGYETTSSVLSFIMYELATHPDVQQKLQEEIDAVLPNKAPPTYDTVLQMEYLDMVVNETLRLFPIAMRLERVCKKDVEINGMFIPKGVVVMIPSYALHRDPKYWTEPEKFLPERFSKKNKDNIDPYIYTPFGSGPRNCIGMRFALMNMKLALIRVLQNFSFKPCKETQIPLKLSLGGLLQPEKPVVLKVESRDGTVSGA

CYP450 2C19 = CYP450 2C19 (Homo sapiens, UniProt P33261); experiment: in vitro screening CYP450 inhibition assay, 2C19; assay type: in vitro ADME; settings: top concentration tested 10 μM
Chain of CYP450 2C19 (P33261 whole entry): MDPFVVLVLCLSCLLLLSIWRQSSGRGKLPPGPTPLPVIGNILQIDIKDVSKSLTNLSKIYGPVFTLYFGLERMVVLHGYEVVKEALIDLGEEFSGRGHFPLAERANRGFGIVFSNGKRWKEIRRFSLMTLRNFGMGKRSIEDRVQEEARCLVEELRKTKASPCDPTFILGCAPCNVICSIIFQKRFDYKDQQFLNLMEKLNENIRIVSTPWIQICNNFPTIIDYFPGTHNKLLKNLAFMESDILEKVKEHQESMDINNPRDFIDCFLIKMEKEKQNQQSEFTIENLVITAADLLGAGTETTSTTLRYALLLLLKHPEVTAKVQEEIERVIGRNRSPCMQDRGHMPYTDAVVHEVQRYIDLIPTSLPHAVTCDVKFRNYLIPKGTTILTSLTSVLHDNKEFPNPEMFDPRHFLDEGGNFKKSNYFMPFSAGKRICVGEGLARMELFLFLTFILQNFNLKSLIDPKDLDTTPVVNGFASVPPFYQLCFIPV

CYP450 2C9 = CYP450 2C9 (Homo sapiens, UniProt P11712); experiment: in vitro screening CYP450 inhibition assay, 2C9; assay type: in vitro ADME; settings: top concentration tested 10 μM
Chain of CYP450 2C9 (P11712 whole entry): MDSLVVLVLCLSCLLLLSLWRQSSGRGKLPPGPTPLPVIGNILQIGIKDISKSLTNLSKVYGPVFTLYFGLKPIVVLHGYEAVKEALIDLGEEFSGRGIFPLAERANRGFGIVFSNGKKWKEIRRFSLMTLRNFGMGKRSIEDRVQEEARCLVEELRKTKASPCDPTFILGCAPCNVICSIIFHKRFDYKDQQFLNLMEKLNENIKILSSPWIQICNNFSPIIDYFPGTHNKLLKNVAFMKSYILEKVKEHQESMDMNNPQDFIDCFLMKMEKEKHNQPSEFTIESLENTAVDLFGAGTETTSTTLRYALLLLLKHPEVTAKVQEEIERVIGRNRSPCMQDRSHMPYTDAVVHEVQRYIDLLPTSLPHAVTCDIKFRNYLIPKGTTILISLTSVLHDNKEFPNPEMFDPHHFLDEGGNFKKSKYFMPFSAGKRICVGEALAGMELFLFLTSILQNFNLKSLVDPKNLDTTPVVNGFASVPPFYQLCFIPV

Chain of human sst2 receptor (P30874 whole entry): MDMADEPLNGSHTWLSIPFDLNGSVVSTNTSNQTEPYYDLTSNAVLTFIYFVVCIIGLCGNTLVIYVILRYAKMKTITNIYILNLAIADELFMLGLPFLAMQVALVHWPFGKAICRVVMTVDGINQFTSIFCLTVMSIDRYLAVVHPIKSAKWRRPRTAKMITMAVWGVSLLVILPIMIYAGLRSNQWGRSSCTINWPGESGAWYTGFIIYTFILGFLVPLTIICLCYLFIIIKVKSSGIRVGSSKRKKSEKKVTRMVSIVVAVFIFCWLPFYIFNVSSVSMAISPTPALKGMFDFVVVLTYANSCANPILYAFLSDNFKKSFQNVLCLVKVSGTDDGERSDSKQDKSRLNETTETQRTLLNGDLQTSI

sst2 pEC50±SEM (human sst2 receptor)	SMILES	also measured
–	Cc1cc(C)cc(N2C=Nc3ccc(-c4cccc(O)c4)cc3C2C(=O)N(C)C[C@H](C)N)c1 (some centres unmarked) [Compound 6]	decrease of sst2 agonist activity relative to compound 4 (human sst2 receptor; human sst2, cAMP): more than 10 fold
8.4 ± 0.0	Cc1cc(Cl)cc(N2C=Nc3cc(C)c(-c4cc(F)cc(F)c4)cc3C2C(=O)N(C)C[C@@H]2CCCN2)c1 (some centres unmarked) [Compound 19]	–
–	Cc1cc(Cl)cc(N2C=Nc3cc(C)c(-c4cc(F)cc(C(N)=O)c4)cc3C2C(=O)N(C)C[C@@H]2CCCN2)c1 (some centres unmarked) [Compound 31]	sst2 agonist activity (in words) (human sst2 receptor; human sst2, cAMP): as potent as compound 26; hERG inhibition (in words) (hERG channel): moderate inhibitors
6.9 ± 0.1	Cc1cc(Cl)cc(N2C=Nc3cc(C)c(-c4cccc(NS(C)(=O)=O)c4)cc3C2C(=O)N(C)C[C@@H]2CCCN2)c1 (some centres unmarked) [Compound 23]	–
7.3 ± 0.0	Cc1cc(Cl)cc(N2C=Nc3cc(C)c(-c4ccccc4)cc3C2C(=O)N(C)C[C@@H]2CCCN2)c1 (some centres unmarked) [Compound 12]	sst2 agonist activity (in words) (human sst2 receptor; human sst2, cAMP): significantly diminished sst2 agonist activity
7.4 ± 0.0	Cc1cc(Cl)cc(N2C=Nc3cc(C)c(-c4cccc(Cl)c4)cc3C2C(=O)N(C)C[C@@H]2CCCN2)c1 (some centres unmarked) [Compound 16]	–
8.0 ± 0.1	CC[C@H](N)CN(C)C(=O)C1c2cc(-c3cccc(O)c3)c(Cl)cc2N=CN1c1cc(C)cc(C)c1 (some centres unmarked) [Compound 7]	enhancement of sst2 potency relative to compound 4 (human sst2 receptor; human sst2, cAMP): about 3 fold
8.3 ± 0.1	Cc1cc(Cl)cc(N2C=Nc3cc(C)c(-c4cccc(C#N)c4)cc3C2C(=O)N(C)C[C@@H]2CCCN2)c1 (some centres unmarked) [Compound 13]	–
9.5 ± 0.2	Cc1cc(Cl)cc(N2C=Nc3cc(C)c(-c4cccc(O)c4)cc3C2C(=O)N(C)C[C@@H]2CCCN2)c1 (some centres unmarked) [Compound 10]	–
8.3 ± 0.2	Cc1cc(Cl)cc(N2C=Nc3cc(C)c(-c4ccc5[nH]c(=O)[nH]c5c4)cc3C2C(=O)N(C)C[C@@H]2CCCN2)c1 (some centres unmarked) [Compound 24]	–
7.9 ± 0.4	Cc1cc(Cl)cc(N2C=Nc3cc(C)c(-c4cncc(C#N)c4)cc3C2C(=O)N(C)C[C@@H]2CCCN2)c1 (some centres unmarked) [Compound 14]	–
–	Cc1cc(Cl)cc(N2C=Nc3cc(C)c(-c4cccc(F)c4O)cc3C2C(=O)N(C)C[C@@H]2CCCN2)c1 (stereo partly drawn) [Compound 28, 3-(3-chloro-5-methylphenyl)-6-(3-fluoro-2-hydroxyphenyl)-N,7-dimethyl-N-{[(2S)-pyrrolidin-2-yl]methyl}-3,4-dihydroquinazoline-4-carboxamide]	CYP 2D6 inhibition (in words) (CYP450 2D6): little inhibition; also recorded: no inhibition; hERG inhibition (in words) (hERG channel): moderate inhibitors; also recorded: weak inhibition; oral exposure (in words) [1]: limited oral exposure; CYP 3A4 inhibition (in words) (CYP450 3A4): little inhibition; also recorded: no inhibition; CYP 2C19 inhibition (in words) (CYP450 2C19): little inhibition; also recorded: no inhibition; CYP 2C9 inhibition (in words) (CYP450 2C9): little inhibition; also recorded: no inhibition
8.7 ± 0.0	Cc1cc(Cl)cc(N2C=Nc3cc(C)c(-c4cc(F)ccc4O)cc3C2C(=O)N(C)C[C@@H]2CCCN2)c1 (some centres unmarked) [Compound 29]	–
–	Cc1cc(C)cc(N2C=Nc3cc(Cl)c(-c4cccc(O)c4)cc3C2C(=O)NC[C@H](C)N)c1 (some centres unmarked) [Compound 5]	sst2 agonist activity (in words) (human sst2 receptor; human sst2, cAMP): completely suppressed its ability to reduce cAMP production
9.0 ± 0.1	Cc1cc(F)cc(N2C=Nc3cc(C)c(-c4cccc(O)c4)cc3C2C(=O)N(C)C[C@@H]2CCCN2)c1 (some centres unmarked) [Compound 11]	–
6.8 ± 0.1	Cc1cc(Cl)cc(N2C=Nc3cc(C)c(-c4cnn(C)c4)cc3C2C(=O)N(C)C[C@@H]2CCCN2)c1 (some centres unmarked) [Compound 17]	sst2 agonist activity (in words) (human sst2 receptor; human sst2, cAMP): substantially reduced potency
8.9 ± 0.1	Cc1cc(C)cc(N2C=Nc3cc(C)c(-c4cccc(O)c4)cc3C2C(=O)N(C)C[C@@H]2CCCN2)c1 (some centres unmarked) [Compound 9]	–
8.2 ± 0.1	COc1cc(F)cc(-c2cc3c(cc2C)N=CN(c2cc(C)cc(Cl)c2)C3C(=O)N(C)C[C@@H]2CCCN2)c1 (some centres unmarked) [Compound 20]	–
9.4 ± 0.1	Cc1cc(Cl)cc(N2C=Nc3cc(C)c(-c4cc(O)cc(C#N)c4)cc3C2C(=O)N(C)C[C@@H]2CCCN2)c1 (some centres unmarked) [Compound 30]	sst2 agonist activity (in words) (human sst2 receptor; human sst2, cAMP): tolerable
8.1 ± 0.1	Cc1cc(Cl)cc(N2C=Nc3cc(C)c(-c4cncc(O)c4)cc3C2C(=O)N(C)C[C@@H]2CCCN2)c1 (some centres unmarked) [Compound 25]	–
7.3 ± 0.0	Cc1cc(Cl)cc(N2C=Nc3cc(C)c(-c4cccc(C(F)(F)F)c4)cc3C2C(=O)N(C)C[C@@H]2CCCN2)c1 (some centres unmarked) [Compound 15]	–
8.4 ± 0.2	CC[C@H](N)CN(C)C(=O)C1c2cc(-c3cccc(O)c3)c(C)cc2N=CN1c1cc(C)cc(C)c1 (some centres unmarked) [Compound 8]	–
